US8604019B2, “Compounds for the treatment and prophylaxis of respiratory syncytial virus disease” (Hoffman-La Roche Inc., priority 2011, dated 2013)

Columns and labels:
[1] = tested on: RSV Long strain (ATCC, catalog number: VR-26); assay: Viral cytopathic effect (CPE) assay, anti-RSV activity; assay type: cell-based; details: human respiratory syncytial virus, 144 h, 6 days, cell viability by Cell Counting kit-8
Protocol: Viral cytopathic effect (CPE) assay: To measure anti-RSV activity of compounds, 96-well plates are seeded with 6×10^3 cells per well in Dulbecco's modified Eagle's medium (DMEM) containing 10% fetal bovine serum (FBS). Cells are infected the next day with sufficient RSV Long strain (ATCC, catalog number: VR-26) to produce an approximately 80-90% cytopathic effect after 6 days, in the presence of serial half-log diluted compound in a total volume of 200 μL per well. The viability of cells is assessed after 6 days using Cell Counting kit-8 (Dojindo Molecular Technologies). The absorbance at 450 nm and referenced at 630 nm is measured to determine 50% effective concentration (EC50).

RSV = details: Phase III clinical trials; cited from earlier work
RSV infection = details: intramuscularly at 15 mg/kg once a month for the duration of RSV season, selected infants; cited from earlier work
[2] = tested on: established RSV infection; details: in vivo; cited from earlier work

NC1(CNc2nc(N3CCS(=O)(=O)c4ccccc4C3)nc3ccsc23)COC1 [Example 2-1, N-[(3-Aminooxetan-3-yl)methyl]-2-(1,1-dioxido-2,3-dihydro-1,4-benzothiazepin-4(5H)-yl)thieno[3,2-d]pyrimidin-4-amine]
EC50 [1]: 0.007 µM

NCC1(CNc2nc(N3CCC(F)(F)c4ccccc4C3)nc3ccsc23)COC1 [Example 1-8, N-{[3-(Aminomethyl)oxetan-3-yl]methyl}-2-(5,5-difluoro-1,3,4,5-tetrahydro-2H-2-benzazepin-2-yl)thieno[3,2-d]pyrimidin-4-amine]
EC50 [1]: 0.022 µM

NCCCNc1nc(N2CC[S+]([O-])c3ccccc3C2)nc2ccsc12 (centres unmarked) [Example 1-2, N-[2-(1-Oxido-2,3-dihydro-1,4-benzothiazepin-4(5H)-yl)thieno[3,2-d]pyrimidin-4-yl]propane-1,3-diamine]
EC50 [1]: 0.255 µM

Cc1cc2nc(N3CC[S+]([O-])c4ccccc4C3)nc(NC3CNC[C@H]3F)c2s1 (mixture of isomers) [Example 4-1, N—[trans-(±)-4-Fluoropyrrolidin-3-yl]-6-methyl-2-(1-oxido-2,3-dihydro-1,4-benzothiazepin-4(5H)-yl)thieno[3,2-d]pyrimidin-4-amine]
EC50 [1]: 0.03 µM

Cc1cc2nc(N3CCSc4ccccc4C3)nc(NCCCN)c2s1 [Example 1-10, N-[2-(2,3-Dihydro-1,4-benzothiazepin-4(5H)-yl)-6-methylthieno[3,2-d]pyrimidin-4-yl]propane-1,3-diamine]
EC50 [1]: 0.735 µM

Cc1cc2nc(N3CCS(=O)(=O)c4ccccc4C3)nc(NCCCN)c2s1 [Example 1-14, N-[2-(1,1-Dioxido-2,3-dihydro-1,4-benzothiazepin-4(5H)-yl)-6-methylthieno[3,2-d]pyrimidin-4-yl]propane-1,3-diamine]
EC50 [1]: 0.073 µM

Cc1cc2nc(N3CCNc4ccccc4C3)nc(NCCCN)c2s1 [Example 1-3, N-[6-Methyl-2-(1,2,3,5-tetrahydro-4H-1,4-benzodiazepin-4-yl)thieno[3,2-d]pyrimidin-4-yl]propane-1,3-diamine]
EC50 [1]: 3.12 µM

Cc1cc2nc(N3CC[S+]([O-])c4ccccc4C3)nc(NCCCN)c2s1 (centres unmarked) [Example 3-5, N-[6-Methyl-2-(1-oxido-2,3-dihydro-1,4-benzothiazepin-4(5H)-yl)thieno[3,2-d]pyrimidin-4-yl]propane-1,3-diamine]
EC50 [1]: 0.232 µM

NCCCNc1nc(N2CCCc3ccccc3C2)nc2ccsc12 [Example 1-9, N-[2-(1,3,4,5-Tetrahydro-2H-2-benzazepin-2-yl)thieno[3,2-d]pyrimidin-4-yl]propane-1,3-diamine]
EC50 [1]: 0.667 µM

motavizumab: A newer version monoclonal antibody designed as potential replacement of palivizumab
benefit over palivizumab (RSV): failed to show additional benefit over palivizumab

Cc1cc2nc(N3CCOc4ccccc4C3)nc(NCCCN)c2s1 [Example 1-11, N-[2-(2,3-Dihydro-1,4-benzoxazepin-4(5H)-yl)-6-methylthieno[3,2-d]pyrimidin-4-yl]propane-1,3-diamine]
EC50 [1]: 1.35 µM

Cc1cc2nc(N3CCC(F)(F)c4ccccc4C3)nc(NCCCN)c2s1 [Example 1-12, N-[2-(5,5-Difluoro-1,3,4,5-tetrahydro-2H-2-benzazepin-2-yl)-6-methylthieno[3,2-d]pyrimidin-4-yl]propane-1,3-diamine]
EC50 [1]: 1.01 µM

Cc1cc2nc(N3CCCc4ccccc4C3)nc(NCCCN)c2s1 [Example 1-13, N-[6-Methyl-2-(1,3,4,5-tetrahydro-2H-2-benzazepin-2-yl)thieno[3,2-d]pyrimidin-4-yl]propane-1,3-diamine]
EC50 [1]: 1.44 µM

Cc1cc2nc(N3CC[S+]([O-])c4ccccc4C3)nc(NCCN)c2s1 (centres unmarked) [Example 3-3, N-[6-Methyl-2-(1-oxido-2,3-dihydro-1,4-benzothiazepin-4(5H)-yl)thieno[3,2-d]pyrimidin-4-yl]ethane-1,2-diamine]
EC50 [1]: 0.086 µM

NCC(F)(F)CNc1nc(N2CCS(=O)(=O)c3ccccc3C2)nc2ccsc12 [Example 1-1, N-[2-(1,1-Dioxido-2,3-dihydro-1,4-benzothiazepin-4(5H)-yl)thieno[3,2-d]pyrimidin-4-yl]-2,2-difluoropropane-1,3-diamine]
EC50 [1]: 0.215 µM

NC1(CNc2nc(N3CC[S@+]([O-])c4ccccc4C3)nc3ccsc23)COC1 [Example 2-4, N-[(3-aminooxetan-3-yl)methyl]-2-[(1S)-1-oxido-2,3-dihydro-1,4-benzothiazepin-4(5H)-yl]thieno[3,2-d]pyrimidin-4-amine]
EC50 [1]: 0.003 µM

NCCCNc1nc(N2CCC(F)(F)c3ccccc3C2)nc2ccsc12 [Example 1-7, N-[2-(5,5-Difluoro-1,3,4,5-tetrahydro-2H-2-benzazepin-2-yl)thieno[3,2-d]pyrimidin-4-yl]propane-1,3-diamine]
EC50 [1]: 0.669 µM

NCCCNc1nc(N2CCSc3ccccc3C2)nc2ccsc12 [Example 1-5, N-[2-(2,3-Dihydro-1,4-benzothiazepin-4(5H)-yl)thieno[3,2-d]pyrimidin-4-yl]propane-1,3-diamine]
EC50 [1]: 0.384 µM

NCCCNc1nc(N2CCNc3ccccc3C2)nc2ccsc12 [Example 1-4, N-[2-(1,2,3,5-Tetrahydro-4H-1,4-benzodiazepin-4-yl)thieno[3,2-d]pyrimidin-4-yl]propane-1,3-diamine]
EC50 [1]: 9.47 µM

palivizumab: a humanized monoclonal antibody against RSV fusion (F) protein approved for prophylaxis in high-risk infants
reduction of hospitalization rate caused by RSV infection (RSV infection): 45-55%
efficacy in treatment of established RSV infection [2]: not effective

Cc1cc2nc(N3CC[S+]([O-])c4ccccc4C3)nc(NCC3(CN)COC3)c2s1 (centres unmarked) [Example 3-4, N-{[3-(Aminomethyl)oxetan-3-yl]methyl}-6-methyl-2-(1-oxido-2,3-dihydro-1,4-benzothiazepin-4(5H)-yl)thieno[3,2-d]pyrimidin-4-amine]
EC50 [1]: 0.006 µM

NCC1(Nc2nc(N3CCS(=O)(=O)c4ccccc4C3)nc3ccsc23)COC1 [Example 2-2, N-[3-(aminomethyl)oxetan-3-yl]-2-(1,1-dioxido-2,3-dihydro-1,4-benzothiazepin-4(5H)-yl)thieno[3,2-d]pyrimidin-4-amine]
EC50 [1]: 0.897 µM

NCCCNc1nc(N2CCS(=O)(=O)c3ccccc3C2)nc2ccsc12 [Example 1-15, N-[2-(1,1-Dioxido-2,3-dihydro-1,4-benzothiazepin-4(5H)-yl)thieno[3,2-d]pyrimidin-4-yl]propane-1,3-diamine]
EC50 [1]: 0.076 µM

Cc1cc2nc(N3CC[S+]([O-])c4ccccc4C3)nc(NCC(F)CN)c2s1 (centres unmarked) [Example 3-2, 2-Fluoro-N-[6-methyl-2-(1-oxido-2,3-dihydro-1,4-benzothiazepin-4(5H)-yl)thieno[3,2-d]pyrimidin-4-yl]propane-1,3-diamine]
EC50 [1]: 0.468 µM

Cc1cc2nc(N3CC[S+]([O-])c4ccccc4C3)nc(NC3CCNC3)c2s1 (centres unmarked) [Example 4-2, 6-Methyl-2-(1-oxido-2,3-dihydro-1,4-benzothiazepin-4(5H)-yl)-N-(pyrrolidin-3-yl)thieno[3,2-d]pyrimidin-4-amine]
EC50 [1]: 0.676 µM

Cc1cc2nc(N3CC[S+]([O-])c4ccccc4C3)nc(NCC3(N)COC3)c2s1 (centres unmarked) [Example 3-1, N-[(3-Aminooxetan-3-yl)methyl]-6-methyl-2-(1-oxido-2,3-dihydro-1,4-benzothiazepin-4(5H)-yl)thieno[3,2-d]pyrimidin-4-amine]
EC50 [1]: 0.026 µM

NC1(CNc2nc(N3CC[S@@+]([O-])c4ccccc4C3)nc3ccsc23)COC1 [Example 2-3, N-[(3-Aminooxetan-3-yl)methyl]-2-[(1R)-1-oxido-2,3-dihydro-1,4-benzothiazepin-4(5H)-yl]thieno[3,2-d]pyrimidin-4-amine]
EC50 [1]: 0.068 µM

NCCCNc1nc(N2CCOc3ccccc3C2)nc2ccsc12 [Example 1-6, N-[2-(2,3-Dihydro-1,4-benzoxazepin-4(5H)-yl)thieno[3,2-d]pyrimidin-4-yl]propane-1,3-diamine]
EC50 [1]: 2.21 µM
